Where two headings read alike, the source gives them in different places.
Key:
MnSOD mRNA [1] = experiment: Northern blot of MnSOD mRNA in HCAECs; assay type: cell-based, human
Method: Cell culture. Human coronary artery endothelial cells (HCAECs) (Clonetics Corporation, San Diego, Calif., USA) and human pulmonary artery endothelial cells (HPAECs) were grown in Endothelial Growth Medium-2-MV (EGM-2-MV) BulletKit (Clonetics Corporation, San Diego, Calif., USA). At 80-90% confluence, the cells were serum-starved in DMEM containing 0.5% FBS for 24 hours and subsequently treated with VEGF-supplemented medium for the times indicated. Human recombinant VEGF was purchased from PeproTech, Inc. (Rocky Hill, N.J., USA). […] In other studies, the serum-starved cells were pretreated with the MEK inhibitor PD98059 at a final concentration of 50 μM or a specific PKC inhibitor bisindolylmaleimide I (BIM; CalBiochem, San Diego, Calif., USA) at a final concentration of 5 μM for 30 minutes prior to addition of growth factors. An equal amount of DMSO was added to the control plates. Northern blot analyses. Ten micrograms total RNA was loaded on a 0.7% formaldehyde-containing agarose gel. The RNA was transferred to nylon membrane, covalently cross-linked with UV radiation, prehybridized for 6 hours, and hybridized for 18 hours at 42° C. with a [^32P]dCTP-labeled cDNA probe containing MnSOD or eNOS cDNA sequence. The membranes were subsequently stripped and probed with a radiolabeled 18S-ribosome probe. For actinomycin D experiments, HCAEC cells were pretreated with 10 μg/ml actinomycin D (Sigma Chemical Company, St. Louis, Mo., USA) for 30 minutes before addition of VEGF and were harvested for total RNA one hour later.
To determine whether VEGF induced expression of MnSOD in primary endothelial cell cultures, HCAECs and HPAECs were serum starved for 24 hours, treated with 40 ng/ml VEGF for 0, 0.5, 1, 2, 4, 12 and 24 hours, and then harvested for total RNA. Northern blots were performed and probed for human MnSOD. […] The membranes were then stripped and reprobed for eNOS.
To determine whether the response of MnSOD to VEGF was mediated by ROS, HCAECs were serum starved and then treated with VEGF in the absence or presence of inhibitors of NADPH oxidase (DPI, apocynin), xanthine oxidase (allopurinol) and nitric oxide synthase (L-NAME).

eNOS mRNA = conditions: either cell type (HCAEC, HPAEC), 40 ng/ml VEGF
Method: (§1) Cell culture. Human coronary artery endothelial cells (HCAECs) (Clonetics Corporation, San Diego, Calif., USA) and human pulmonary artery endothelial cells (HPAECs) were grown in Endothelial Growth Medium-2-MV (EGM-2-MV) BulletKit (Clonetics Corporation, San Diego, Calif., USA). At 80-90% confluence, the cells were serum-starved in DMEM containing 0.5% FBS for 24 hours and subsequently treated with VEGF-supplemented medium for the times indicated. Human recombinant VEGF was purchased from PeproTech, Inc. (Rocky Hill, N.J., USA). In inhibition studies, the serum-starved HCAEC cells were preincubated with diphenyleneiodonium (DPI), apocynin, allopurinol, L-NAME, or anthrone for one hour and then incubated in the absence or presence of 40 ng/ml VEGF for another hour. In other studies, the serum-starved cells were pretreated with the MEK inhibitor PD98059 at a final concentration of 50 μM or a specific PKC inhibitor bisindolylmaleimide I (BIM; CalBiochem, San Diego, Calif., USA) at a final concentration of 5 μM for 30 minutes prior to addition of growth factors. An equal amount of DMSO was added to the control plates. Northern blot analyses. Ten micrograms total RNA was loaded on a 0.7% formaldehyde-containing agarose gel. The RNA was transferred to nylon membrane, covalently cross-linked with UV radiation, prehybridized for 6 hours, and hybridized for 18 hours at 42° C. with a [^32P]dCTP-labeled cDNA probe containing MnSOD or eNOS cDNA sequence. The membranes were subsequently stripped and probed with a radiolabeled 18S-ribosome probe. For actinomycin D experiments, HCAEC cells were pretreated with 10 μg/ml actinomycin D (Sigma Chemical Company, St. Louis, Mo., USA) for 30 minutes before addition of VEGF and were harvested for total RNA one hour later.
(§2) To determine whether VEGF induced expression of MnSOD in primary endothelial cell cultures, HCAECs and HPAECs were serum starved for 24 hours, treated with 40 ng/ml VEGF for 0, 0.5, 1, 2, 4, 12 and 24 hours, and then harvested for total RNA. Northern blots were performed and probed for human MnSOD. […]

MnSOD mRNA [2] = conditions: HPAEC, 40 ng/ml VEGF
Method: as §1, §2

eNOS protein = conditions: 40 ng/ml VEGF, any time point 0.5-24 hours
Method: Western blot analyses. Whole cell protein extracts were prepared from serum-starved HCAECs and HPAECs one hour following addition of growth factor-supplemented or mock-treated media. Cells were washed twice with cold phosphate-buffered saline, harvested with a cell scraper, and lysed in ice-cold lysis buffer containing 20 mM HEPES, pH 7.5, 150 mM NaCl, 1% NP-40, 0.1% SDS, 1 mM EDTA, 1 mM DTT, 0.5 mM phenylmethylsulfonyl fluoride (PMSF), and the protease inhibitor cocktail (Boehringer Mannheim, Mannheim, Germany) for one hour. The resulting lysates were centrifuged at 10,000× g for 20 minutes and the supernatants were saved as whole cell protein extracts. Forty micrograms of protein were separated by 10% SDS-PAGE and electrotransferred to nitrocellulose membranes. Membranes were blocked with 5% nonfat dry milk in Tris-buffered saline with 0.1% Tween 20 for one hour at room temperature. The blot was incubated with primary rabbit polyclonal anti-MnSOD IgG (1:1000 dilution) (Santa Cruz Biotechnology Inc., Santa Cruz, Calif., USA) overnight at 4° C., followed by secondary antibody goat-anti-rabbit horseradish peroxidase conjugate (1:1000 dilution) (Pierce, Rockford, Ill., USA). The blot was washed extensively between each incubation step. […] Endothelial cells were labeled with DCFDA and oxidation of DCF was measured by flow cytometry.

MnSOD protein = conditions: 40 ng/ml VEGF; for MnSOD protein: 0.5-24 hours
Method: (§3) Western blot analyses. Whole cell protein extracts were prepared from serum-starved HCAECs and HPAECs one hour following addition of growth factor-supplemented or mock-treated media. Cells were washed twice with cold phosphate-buffered saline, harvested with a cell scraper, and lysed in ice-cold lysis buffer containing 20 mM HEPES, pH 7.5, 150 mM NaCl, 1% NP-40, 0.1% SDS, 1 mM EDTA, 1 mM DTT, 0.5 mM phenylmethylsulfonyl fluoride (PMSF), and the protease inhibitor cocktail (Boehringer Mannheim, Mannheim, Germany) for one hour. The resulting lysates were centrifuged at 10,000× g for 20 minutes and the supernatants were saved as whole cell protein extracts. Forty micrograms of protein were separated by 10% SDS-PAGE and electrotransferred to nitrocellulose membranes. Membranes were blocked with 5% nonfat dry milk in Tris-buffered saline with 0.1% Tween 20 for one hour at room temperature. The blot was incubated with primary rabbit polyclonal anti-MnSOD IgG (1:1000 dilution) (Santa Cruz Biotechnology Inc., Santa Cruz, Calif., USA) overnight at 4° C., followed by secondary antibody goat-anti-rabbit horseradish peroxidase conjugate (1:1000 dilution) (Pierce, Rockford, Ill., USA). The blot was washed extensively between each incubation step. Peroxidase activity was visualized with an enhanced chemiluminescense substrate system (Amersham, Arlington Heights, Ill., USA). Membranes were stripped and probed for eNOS and β-actin. Flow cytometry. Endothelial cells were labeled with DCFDA and oxidation of DCF was measured by flow cytometry.
Serum-starved HCAECs and HPAECs were treated with 40 ng/ml VEGF for 0.5-24 hours and then harvested for total protein.

MnSOD mRNA [3] = experiment: Northern blot of MnSOD mRNA in organs of mice after intraperitoneal VEGF; assay type: in vivo, mouse; conditions: four hours after intraperitoneal injection of 20 μg VEGF
Method: Mice and injection of growth factors. Female FVB mice (4 to 8 weeks old; 18 to 22 grams) were obtained from Taconic (Germantown, N.Y., USA). All protocols were approved by the Institutional Animal Care and Use Committee of the Beth Israel Deaconess Medical Center. Mice were injected intraperitoneally with VEGF (1.0 μg/g body weight).
Injection of VEGF into the intraperitoneal cavity of mice results in widespread distribution of the growth factor and phosphorylation of the VEGF receptor, Flk-1. In this study, therefore, organs were removed from mice four hours following intraperitoneal injection of either normal saline or 20 μg VEGF and harvested for total RNA. Northern blot analyses were then carried out to determine whether VEGF induced the expression of a panel of genes, including MnSOD.

ROS = ROS generation: DCF oxidation by flow cytometry in DCFDA-labeled HCAECs; assay type: cell-based, human; conditions: relative to basal rate of control cells
Method: as §3
To test whether VEGF increases ROS production in endothelial cells, HCAECs were labeled with […] DCFDA and oxidation of DCF was measured by flow cytometry. […] PMS is known to induce free oxygen radicals.

## VEGF
MnSOD mRNA [1]; HCAEC, 40 ng/ml VEGF
  time of peak MnSOD mRNA levels: 4 h
MnSOD mRNA [1]; HCAEC, 40 ng/ml VEGF, between one hour and 24 hours
  MnSOD mRNA levels: increased
MnSOD mRNA [1]; dose-response 0, 1, 5, 10, 100 ng/ml VEGF
  VEGF concentration of maximal MnSOD induction: 100 ng/mL
eNOS mRNA
  eNOS mRNA induction: not induced
MnSOD mRNA [2]
  time of peak MnSOD mRNA levels: 4 h
MnSOD mRNA [2]; between 2 and 24 hours
  MnSOD mRNA levels: increased
eNOS protein
  eNOS protein levels: did not increase
MnSOD protein; HCAECs
  time of maximal MnSOD protein levels: 12 to 24 h
  MnSOD protein: significantly induced
MnSOD protein; HPAECs
  time of maximal MnSOD protein levels: 12 to 24 h
  MnSOD protein: significantly induced
MnSOD mRNA [3]
  MnSOD mRNA levels in other tissues (lung, brain, liver, spleen, skeletal muscle): not
  MnSOD mRNA levels in the heart and the kidney: increased
ROS
  DCF oxidation (ROS production): no change
